Assay results: ChEMBL document CHEMBL1127007, “Quinazolinones 2: QSAR and in vivo characterization of AT1 selective AII antagonists” (Bioorg Med Chem Lett, 1993)

Experiments:
[1] = biological target: T1, Type-2 angiotensin II receptor (Homo sapiens) (UniProt P50052); assay: In vitro antagonist activity against the Angiotensin II (type 2) receptor.; type: functional
T1 sequence (whole entry): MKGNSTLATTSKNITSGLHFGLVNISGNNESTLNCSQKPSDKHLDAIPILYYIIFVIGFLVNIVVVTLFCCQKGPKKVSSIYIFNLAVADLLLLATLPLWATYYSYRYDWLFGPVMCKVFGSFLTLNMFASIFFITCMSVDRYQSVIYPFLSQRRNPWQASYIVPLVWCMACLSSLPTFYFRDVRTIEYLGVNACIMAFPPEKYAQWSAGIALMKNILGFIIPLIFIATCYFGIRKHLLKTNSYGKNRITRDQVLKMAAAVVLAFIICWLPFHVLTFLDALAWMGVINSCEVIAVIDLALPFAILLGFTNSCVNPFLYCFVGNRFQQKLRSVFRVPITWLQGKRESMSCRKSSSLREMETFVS

Rattus norvegicus [2] = assay: The duration of action is expressed as the time for the % inhibition of pressor response to fall below 30% for a single bolus of the drug administered intravenously.; type: functional
Rattus norvegicus [3] = assay: Compound was evaluated in vivo for inhibition of the AII pressor response in normotensive rat at dose 1 mg/kg, iv after 0.2 hour; type: functional
Rattus norvegicus [4] = assay: Compound was evaluated in vivo for inhibition of the AII pressor response in normotensive rat at dose 1 mg/kg, iv after 0.9 hour; type: functional
[5] = biological target: Angiotensin II receptor (Rattus norvegicus) (UniProt P29089+P25095+P35351); assay: Duration of action as time for pressor response to fall below 30% for a single bolus by intravenous dose; type: functional, organism-based
Rattus norvegicus [6] = assay: In vivo for inhibition of the AII pressor response in normotensive rat at dose 0.3 mg/kg(iv) after 0.8 hour; type: functional
[7] = biological target: T2, Type-1 angiotensin II receptor (Oryctolagus cuniculus, UniProt P34976); assay: Displacement of [125I]Sar1-Ile8-AII (without BSA) from type 1 Angiotensin II receptor of rabbit aorta; type: tissue-based
T2 sequence (P34976 whole entry): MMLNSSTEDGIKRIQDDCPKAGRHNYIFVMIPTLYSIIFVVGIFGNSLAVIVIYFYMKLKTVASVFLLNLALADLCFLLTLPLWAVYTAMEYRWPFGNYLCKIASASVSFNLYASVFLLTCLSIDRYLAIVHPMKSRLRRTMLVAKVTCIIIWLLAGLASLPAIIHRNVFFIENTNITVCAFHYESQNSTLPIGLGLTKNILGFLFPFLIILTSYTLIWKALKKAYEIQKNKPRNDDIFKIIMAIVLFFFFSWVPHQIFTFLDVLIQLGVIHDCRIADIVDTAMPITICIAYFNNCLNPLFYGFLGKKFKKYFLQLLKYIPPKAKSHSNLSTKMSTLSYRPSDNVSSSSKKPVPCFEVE

Rattus norvegicus [8] = assay: Compound was evaluated in vivo for inhibition of the AII pressor response in normotensive rat at dose 0.3 mg/kg, iv after 3.5 hr; type: functional
Rattus norvegicus [9] = assay: The duration of action is expressed as the time for the % inhibition of pressor response to fall below 30% for a single bolus of the drug administered perorally.; type: functional
Rattus norvegicus [10] = assay: Compound was evaluated in vivo for inhibition of the AII pressor response in normotensive rat at dose 0.3 mg/kg, iv after 6 hours; type: functional
Rattus norvegicus [11] = assay: Compound was evaluated in vivo for inhibition of the AII pressor response in normotensive rat at dose 0.3 mg/kg, po; type: functional
[12] = biological target: T2, Type-1 angiotensin II receptor; assay: Ability to displace [125I]Sar1-Ile8-AII from angiotensin II receptor, type 1 in rabbit aorta in presence of 0.2% bovine serum albumin (BSA) was determined in vitro; type: tissue-based

| Activity [1] | Duration [5] | IC50 [7] | IC50 [12] | SMILES | Duration (Rattus norvegicus [2]) | inhibition in vivo at 1 mg/kg (Rattus norvegicus [3]) | inhibition in vivo at 1 mg/kg (Rattus norvegicus [4]) | inhibition in vivo at 0.3 mg/kg (Rattus norvegicus [6]) | inhibition in vivo at 0.3 mg/kg (Rattus norvegicus [8]) | Duration (Rattus norvegicus [9]) | inhibition in vivo at 0.3 mg/kg (Rattus norvegicus [10]) | inhibition in vivo at 0.3 mg/kg (Rattus norvegicus [11]) |
| --- | --- | --- | --- | --- | --- | --- | --- | --- | --- | --- | --- | --- |
| > 1000 nM |  |  |  | CCCCc1nc2ccc(OC)cc2c(=O)n1Cc1ccc(-c2ccccc2-c2nn[nH]n2)cc1 | 0.2 h | 49% |  |  |  |  |  |  |
| > 1000 nM | 0.9 h |  |  | CCCCc1nc2ccc(NC(C)=O)cc2c(=O)n1Cc1ccc(-c2ccccc2-c2nn[nH]n2)cc1 |  |  | 97% |  |  |  |  |  |
| > 1000 nM | 0.8 h |  |  | CCCCc1nc2ccc(N(C)C(=O)N(C)C(C)C)cc2c(=O)n1Cc1ccc(-c2ccccc2-c2nn[nH]n2)cc1 |  |  |  | 70% |  |  |  |  |
| > 1000 nM | > 6 h | 0.5 nM | 0.75 nM | CCCCc1nc2ccc(NC(=O)NC(C)C)cc2c(=O)n1Cc1ccc(-c2ccccc2-c2nn[nH]n2)cc1 |  |  |  |  | 86% | 0 h | 86% | 0% |
